Laboratory results: PubChem BioAssay (NCI)
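48-hour exposure; five concentrations; linearly interpolated endpoints. TGI: concentration producing complete growth inhibition.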

Columns and labels:
Experiment in all cases: NCI-60 cell line screen, 48 h
KM12 colon = tested on: KM12 colon
UO-31 renal = tested on: UO-31 renal
TK-10 renal = tested on: TK-10 renal
SK-MEL-2 melanoma = tested on: SK-MEL-2 melanoma
OVCAR-8 ovarian = tested on: OVCAR-8 ovarian
A498 renal = tested on: A498 renal
IGROV1 ovarian = tested on: IGROV1 ovarian
SK-MEL-28 melanoma = tested on: SK-MEL-28 melanoma
SK-MEL-5 melanoma = tested on: SK-MEL-5 melanoma
CCRF-CEM leukemia = tested on: CCRF-CEM leukemia
DU-145 prostate = tested on: DU-145 prostate
HL-60(TB) leukemia = tested on: HL-60(TB) leukemia
BT-549 breast = tested on: BT-549 breast
M14 melanoma = tested on: M14 melanoma
K-562 leukemia = tested on: K-562 leukemia
786-0 renal = tested on: 786-0 renal
SF-268 CNS = tested on: SF-268 CNS
T-47D breast = tested on: T-47D breast
NCI-H226 lung = tested on: NCI-H226 lung
COLO 205 colon = tested on: COLO 205 colon
ACHN renal = tested on: ACHN renal
SR leukemia = tested on: SR leukemia
HOP-92 NSCLC = tested on: HOP-92 NSCLC
MDA-MB-435 = tested on: MDA-MB-435
MCF7 breast = tested on: MCF7 breast
NCI/ADR-RES ovarian = tested on: NCI/ADR-RES ovarian
PC-3 prostate = tested on: PC-3 prostate
MALME-3M melanoma = tested on: MALME-3M melanoma
UACC-62 melanoma = tested on: UACC-62 melanoma
SW-620 colon = tested on: SW-620 colon
SF-539 CNS = tested on: SF-539 CNS
OVCAR-3 ovarian = tested on: OVCAR-3 ovarian
UACC-257 melanoma = tested on: UACC-257 melanoma
OVCAR-4 ovarian = tested on: OVCAR-4 ovarian
A549 NSCLC = tested on: A549 NSCLC
SNB-19 CNS = tested on: SNB-19 CNS
NCI-H23 lung = tested on: NCI-H23 lung
SNB-75 CNS = tested on: SNB-75 CNS
SF-295 CNS = tested on: SF-295 CNS
U251 CNS = tested on: U251 CNS
RXF 393 renal = tested on: RXF 393 renal
HCT-15 colon = tested on: HCT-15 colon
HCC-2998 colon = tested on: HCC-2998 colon
OVCAR-5 ovarian = tested on: OVCAR-5 ovarian
HS 578T breast = tested on: HS 578T breast
HCT-116 colon = tested on: HCT-116 colon
NCI-H460 lung = tested on: NCI-H460 lung
MDA-MB-231 breast = tested on: MDA-MB-231 breast
RPMI-8226 leukemia = tested on: RPMI-8226 leukemia
MOLT-4 leukemia = tested on: MOLT-4 leukemia
HT29 colon = tested on: HT29 colon
SN12C renal = tested on: SN12C renal
SK-OV-3 ovarian = tested on: SK-OV-3 ovarian
CAKI-1 renal = tested on: CAKI-1 renal
EKVX NSCLC = tested on: EKVX NSCLC
NCI-H522 lung = tested on: NCI-H522 lung

Measured: TGI

Cc1c(C)c2c(c(N)c1C#N)C(=O)N(O)C2=O
> 100 µM: all assays above
